According to US4789675A, “1,4-benzoxazine derivatives and pharmaceutical use” (priority 1986, dated 1988):
Structures can show the parent of a compound that is named as a salt. Where two headings read alike, the source gives them in different places.

Tests used:
[1] = tested on: contraction of rabbit aorta strip caused by KCl; assay: Vasodilating action: inhibition of contraction of aorta strip caused by KCl; conditions: Oryctolagus cuniculus, compound 10^-5 M, KCl (6.0 mM), read-out: Inhibitory percent against contraction (KCl)
Experimental: (§1) A spiral strip of aorta of a rabbit (2 to 3 mm width, about 3 cm length) was allowed to equilibrate by hanging under 2 g force in a Krebs-Henseleitsolution. The solution was saturated with a mixture gas of 97% O2 -3% CO2 which was warmed to 37° C. Inhibitory actions of compounds (10^-5 M) of this invention against contraction of the aorta strip caused by KCl ([…]), norepinephrine (NE) (10^-6 M) or serotonin (5-HT) (10^-6 M), by treating the strip with a compound of this invention 30 minutes before the test (15 minutes in the case of 5-HT), are shown in Table 1 as inhibitory percentage.

[2] = tested on: contraction of rabbit aorta strip caused by norepinephrine (NE); assay: Vasodilating action: inhibition of contraction of aorta strip caused by norepinephrine (NE); conditions: Oryctolagus cuniculus, compound 10^-5 M, NE 10^-6 M, read-out: Inhibitory percent against contraction (NE)
Experimental: as §1

[3] = tested on: contraction of rabbit aorta strip caused by serotonin (5-HT); assay: Vasodilating action: inhibition of contraction of aorta strip caused by serotonin (5-HT); conditions: Oryctolagus cuniculus; compound 10^-5 M; 5-HT 10^-6 M; treated 15 minutes before the test; read-out: Inhibitory percent against contraction (5-HT)
Experimental: as §1

[4] = tested on: Spontaneously hypertensive rats; assay: Antihypertensive action in spontaneously hypertensive rats (tail-cuff); type: in vivo, rat; conditions: 1 hour after administration
Experimental: Spontaneously hypertensive rats (male, 12 to 13 weeks old, blood pressure before administration of drug was about 200 mmHg) were used in groups of 3 individuals. After measuring tail arterial pressure of these animals by the tail-cuff method, the animals were orally given 3 to 60 mg/kg of each test compound of this invention as 2 ml of its suspension in gum arabic. Blood pressure measurements were made again one hour after administration of each test compound.

[5] = tested on: ischemia-reperfusion-induced ventricular arrhythmia in rats; assay: Effect on the ischemia-reperfusion-induced ventricular arrhythmia in rats; type: in vivo, rat; conditions: p.o., rats with change/rats used; for Cardiac arrest incidence: control 8/18; for Ventricular fibrillation incidence: control 17/18; for Ventricular tachycardia incidence: control 18/18
Experimental: Male Sprague-Dawley rats, 9 to 10 week old, were orally given the compounds or tap water at a volume of 5 ml/kg. After one hour, the animals were anesthetized with sodium pentobarbital (50 mg/kg, by intraperitoneal injection), and they were subjected to thoractomy under artificial respiration, and the left anterior descending coronary artery was occluded for five minutes. The incidences of ventricular tachycardia, ventricular fibrilation and cardiac arrest for ten minutes after reperfusion of the blood were calculated.

[6] = tested on: acute renal failure in rats; assay: Effect on acute renal failure in rats (plasma urea nitrogen, BUN); type: in vivo, rat; conditions: p.o., control 27 ± 1, *P < 0.05
Experimental: Male sprague-Dawley rats, 6 week old, were orally given the compunds or tap water at a volume of 5 ml/kg. After one hour, the animals were anesthetized with sodium pentobarbital. The animals were subjected to laparotomy, and the left renal artery was clamped completely for one hour. The clamp was undone, and the incision was closed. The animals were again given orally the compounds or tap water 20 hours later. Further four hours later, the animals were again anesthetized, and the blood was obtained from the abdominal aorta. The plasma was separated for measurement of urea nitrogen (BUN).

[7] = tested on: caffeine-induced contraction of rabbit aorta strip depending on intracellular Ca^++; assay: Intracellular Ca++ antagonism: inhibition of caffeine-induced contraction of aorta strip in Ca-free/EGTA solution; conditions: Oryctolagus cuniculus, caffeine 20 mM, Ca++ 0 mM, EGTA 5 mM, read-out: Inhibitory percent (caffeine contraction); for inhibition at 10 µM: compound 10^-5 M; for inhibition at 1 µM: compound 10^-6 M
Experimental: A spiral strip of aorta of a rabbit (2 to 3 mm width, aobut 3 cm length) was allowed to equilibrate by hanging under 2 g force in a Krebs-Henseleitsolution. The solution was saturated with a mixture gas of 97% O2 -3% CO2, which was warmed to 37° C. The strip was moved into another Krebs-Henseleit solution containing Ca^++ OmM and EGTA 5 mM. Five minutes later, caffeine (20 mM) was added to the solution. The resulting contraction of the strip was made as the index of the contraction depending on intracellular Ca^++.

[8] = Acute toxicity (oral, 7 days observation); conditions: rat, in vivo, male rats, five animals/group, seven days
Description: Male Wister rats aged five weeks (five animals/group) were orally given the test compounds (Example No. 1, 14, 15 and 18) suspended in a 5% solution of gum arabic. Each animal so treated was observed over a period of seven days.

[9] = treating 3 hours before the test (*1)
[10] = treated 30 minutes before the test

SMILES	Antihypertensive effect (Δ mm Hg) ([4]; 3 mg/kg oral)	inhibition at 10 µM [2, 10]	inhibition at 10 µM [1, 10]	other results
O=C1Nc2cc3c(cc2OC1CCCN1CCN(c2ccc(F)cc2)CC1)CCCC3 (stereo not shown) [1 (2HCl salt), 2-{3-[4-(4-fluorophenyl)-1-piperazinyl]propyl}-6,7,8,9-tetrahydro-2H-naphtho[2,3-b][1,4]oxazin-3(4H)-one]	30 mm Hg			inhibition at 10 µM [1, 9]: 82%; inhibition at 10 µM ([2]; treating 2 hours before the test (*2)): 95%; inhibition at 10 µM [3]: 52%; Antihypertensive effect (Δ mm Hg) ([4]; 10 mg/kg oral): 50 mm Hg; Cardiac arrest incidence ([5]; 3 mg/kg): 2/9; Ventricular fibrillation incidence ([5]; 3 mg/kg, *P < 0.05): 5/9; Ventricular tachycardia incidence ([5]; 3 mg/kg): 7/9; Cardiac arrest incidence ([5]; 10 mg/kg): 4/11; Ventricular fibrillation incidence ([5]; 10 mg/kg, **P < 0.01): 5/11; Ventricular tachycardia incidence ([5]; 10 mg/kg, **P < 0.01): 7/11; Cardiac arrest incidence ([5]; 20 mg/kg): 0/5; Ventricular fibrillation incidence ([5]; 20 mg/kg, **P < 0.01): 0/5; Ventricular tachycardia incidence ([5]; 20 mg/kg, **P < 0.01): 2/5; BUN ([6]; 1 mg/kg): 24 ± 0.5 mg/dL; BUN ([6]; 3 mg/kg): 22 ± 2 mg/dL; BUN ([6]; 10 mg/kg): 23 ± 0.5 mg/dL
O=C1Nc2ccccc2OC1CCCN1CCN(c2ccc(F)cc2)CC1 (stereo not shown) [Example 2]		100%		inhibition at 10 µM [1, 9]: 73%; Antihypertensive effect (Δ mm Hg) ([4]; 60 mg/kg oral): 44 mm Hg
Cc1ccc2c(c1)NC(=O)C(CCCN1CCN(c3ccc(F)cc3)CC1)O2 (stereo not shown) [Example 3]		99%	10%	inhibition at 10 µM [3]: 91%; inhibition at 10 µM [7]: 60%; Antihypertensive effect (Δ mm Hg) ([4]; 60 mg/kg oral): 45 mm Hg
Cc1ccc2c(c1)NC(=O)C(CCN1CCN(c3ccc(F)cc3)CC1)O2 (stereo not shown) [Example 5]		86%	9%	inhibition at 10 µM [3]: 100%; inhibition at 10 µM [7]: 58%
O=C1Nc2cc([N+](=O)[O-])ccc2OC1CCCN1CCN(c2ccc(F)cc2)CC1 (stereo not shown) [Example 6, 2-{3-[4-(4-fluorophenyl)-1-piperazinyl]propyl}-6-nitro-2H-1,4-benzoxazin-3(4H)-one]		100%	37%	inhibition at 10 µM [3]: 81%; Antihypertensive effect (Δ mm Hg) ([4]; 60 mg/kg oral): 43 mm Hg
O=C1Nc2cc(Cl)ccc2OC1CCCN1CCN(c2ccc(F)cc2)CC1 (stereo not shown) [Example 7]		98%	29%	inhibition at 10 µM [3]: 81%
CCOC(=O)c1ccc2c(c1)OC(CCCN1CCN(c3ccc(F)cc3)CC1)C(=O)N2 (stereo not shown) [Example 8]		98%	33%	Antihypertensive effect (Δ mm Hg) ([4]; 60 mg/kg oral): 35 mm Hg
O=C1Nc2c(ccc3c2CCCC3)OC1CCCN1CCN(c2ccc(F)cc2)CC1 (stereo not shown) [Example 10]				inhibition at 10 µM [7]: 59%; Antihypertensive effect (Δ mm Hg) ([4]; 10 mg/kg oral): 23 mm Hg
O=C1Nc2cc3c(cc2OC1CCCN1CCN(c2ccc(F)cc2)CC1)CCC3 (stereo not shown) [Example 12]	20 mm Hg	100%	21%	
O=C1Nc2cc3c(cc2OC1CCCN1CCN(c2ccc(F)cc2)CC1)OCO3 (stereo not shown) [Example 13]	27 mm Hg	100%	24%	
O=C1Nc2cc3c(cc2OC1CCCN1CCN(c2cccc(F)c2)CC1)CCCC3 (stereo not shown) [Example 14]	54 mm Hg			inhibition at 1 µM [7]: 61%; LD50 at 168 h [8]: ≥ 300 mg/kg
COc1ccccc1N1CCN(CCCC2Oc3cc4c(cc3NC2=O)CCCC4)CC1 (stereo not shown) [Example 15]	49 mm Hg	100%	8%	inhibition at 1 µM [7]: 58%; LD50 at 168 h [8]: ≥ 300 mg/kg
Cc1ccc(N2CCN(CCCC3Oc4cc5c(cc4NC3=O)CCCC5)CC2)cc1 (stereo not shown) [Example 17]	26 mm Hg			
O=C1Nc2cc3c(cc2OC1CCCN1CCN(c2ccccc2)CC1)CCCC3 (stereo not shown) [Example 18]	32 mm Hg			inhibition at 1 µM [7]: 59%; LD50 at 168 h [8]: ≥ 300 mg/kg
O=C1Nc2cc3c(cc2OC1CCCN1CCN(c2ccc(O)cc2)CC1)CCCC3 (stereo not shown) [Example 21]		99%	26%	inhibition at 1 µM [7]: 54%
O=C1Nc2cc3c(cc2OC1CCCCN1CCN(c2ccc(F)cc2)CC1)CCCC3 (stereo not shown) [Example 22]	23 mm Hg	95%	14%	inhibition at 10 µM [3]: 38%
CN1C(=O)C(CCCN2CCN(c3ccc(F)cc3)CC2)Oc2cc3c(cc21)CCCC3 (stereo not shown) [Example 23, 2-{3-[4-(4-fluorophenyl)-1-piperazinyl]propyl}-6,7,8,9-tetrahydro-4-methyl-2H-naphtho[2,3-b][1,4]oxazin-3(4H)-one]				inhibition at 1 µM [7]: 42%
Nc1ccc2c(c1)NC(=O)C(CCCN1CCN(c3ccc(F)cc3)CC1)O2 (stereo not shown) [Example 24, 6-amino-2-{3-[4-(4-fluorophenyl)-1-piperazinyl]propyl}-2H-1,4-benzoxazin-3(4H)-one]				Antihypertensive effect (Δ mm Hg) ([4]; 60 mg/kg oral): 60 mm Hg
CC(=O)Nc1ccc2c(c1)NC(=O)C(CCCN1CCN(c3ccc(F)cc3)CC1)O2 (stereo not shown) [Example 25, 6-acetamido-2-{3-[4-(4-fluorophenyl)-1-piperazinyl]propyl}-2H-1,4-benzoxazin-3(4H)-one]		100%	9%	Antihypertensive effect (Δ mm Hg) ([4]; 60 mg/kg oral): 81 mm Hg
O=C1Nc2cc(C(F)(F)F)ccc2OC1CCCN1CCN(c2ccc(F)cc2)CC1 (stereo not shown) [Example 27, 2-{3-[4-(4-fluorophenyl)-1-piperazinyl]propyl}-6-trifluoromethyl-2H-1,4-benzoxazin-3(4H)-one]		98%	36%	
O=C1Nc2c(ccc3c2CCC3)OC1CCCN1CCN(c2ccc(F)cc2)CC1 (stereo not shown) [Example 28, 5,6-cyclopenteno-2-{3-[4-(4-fluorophenyl)-1-piperazinyl]propyl}-2H-1,4-benzoxazin-3(4H)-one]	20 mm Hg	100%	28%	
O=C1Nc2cc3c(cc2O[C@H]1CCCN1CCN(c2ccc(F)cc2)CC1)CCCC3 [Example 30, (S)-(-)-2-{3-[4-(4-fluorophenyl)-1-piperazinyl]propyl}-6,7,8,9-tetrahydro-2H-naphtho[2,3-b][1,4]oxazin-3(4H)-one]	21 mm Hg	73%	33%	
O=C1Nc2cc3c(cc2O[C@@H]1CCCN1CCN(c2ccc(F)cc2)CC1)CCCC3 [Example 31, (R)-(+)-2-{3-[4-(4-fluorophenyl)-1-piperazinyl]propyl}-6,7,8,9-tetrahydro-2H-naphtho[2,3-b][1,4]oxazin-3(4H)-one]	21 mm Hg	99%	30%	
